Reference: PubChem BioAssay AID2060884 (Molecular Pharmacology Branch, DTP, NCI, 2025)

Tested on: NCI-H929 complex spheroids, viability % test/control
Assay: Anticancer human tumor NCI-H929 cell line growth inhibition [RAS];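 also: compound exposure lasted seven days before viability was read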
Conditions: for IC50: curve of first compound; for viability, T/C: stronger effect = lower value
Excerpt: RAS pathway inhibitors in Combinations in Complex Spheroids
A high-throughput screen of multi-cell type tumor spheroids was designed to identify active combinations of RAS pathway inhibitors and targeted small molecules. Complex spheroids include a stromal component modeled by human endothelial cells (HUVEC) and fibroblasts modeled by human mesenchymal stem cells (MSCs). The concentration ranges selected for each drug and investigational agent were based upon clinically achievable concentrations if the clinical Cmax of the agent was known.
Compounds. The drugs and investigational agents: abemaciclib (NSC768073), cobimetinib (NSC768068), divarasib (GDC6063, NSC841802), docetaxel (NSC628503), GDC-1971 (RLY-1971, NSC841576), gemcitabine (NSC613327), inavolisib (NSC800729), ipatasertib (NSC767898), KB-0742 (NSC834161), MRTX-1133 (NSC836407), osimertinib (NSC779217), RMC-4630 (NSC839698), RMC-6236 (NSC851965), RMC-6291 (NSC852671), Ro-3306 (NSC812927), sapanisertib (NSC764658), SN-38 (NSC673596), staurosporine (NSC755774), SY5609 (NSC837396), and tovorafenib (DAY101, NSC766906), were obtained from the National Cancer Institute (NCI) Developmental Therapeutics Program Chemical Repository. The FDA-approved anticancer drug set is available from the NCI Developmental Therapeutics Program. […] The stock solutions were prepared in dimethyl sulfoxide (DMSO, Sigma-Aldrich, St. Louis, MO, cat. D2650) at 800-fold the tested concentration and stored at -70 degrees C prior to their use. All drugs and investigational agents were tested over a range starting from a high concentration at or near the clinical Cmax and decreasing in half-log increments. If the clinical Cmax for an agent had not been determined, the highest concentration tested was 10 microM.
Cell Culture. All cells were maintained in an incubator at 37 degrees C and 5% CO2 with 95% humidity. The PDC lines were cultured according to standard operating procedures established by the NCI PDMR. All PDCs were thawed and cultured in Matrigel-coated flasks prepared with a working solution of 1X Ham's F-12 nutrient mix, without supplementation (Invitrogen, Waltham, MA, cat. 11765054), 100 U/mL penicillin-streptomycin (Invitrogen, cat. 15140122), and 2.5% Matrigel (Corning Inc., Corning, NY, cat. 354248) for the first three passages. The 362531-283-R-J2-PDC and 782815-120-R-J1-PDC lines were cultured in 6C/Colon 1B media, which includes advanced DMEM/F-12 (Thermo Fisher Scientific, cat. 12634028), 10 mM HEPES (Thermo Fisher Scientific, cat. 15630080), 1X GlutaMAX supplement (Thermo Fisher Scientific, cat. 35050061), 0.1 mg/mL primocin (InvivoGen, San Diego, CA, cat. ant-pm-2), 10% defined fetal bovine serum, heat inactivated (HyClone Laboratories Inc., Logan, UT, cat. SH30070.03HI), 50% L-WRN conditioned media (ATCC, cat. CRL-3276), 1.25 mM N-Acetyl-L-cysteine (Sigma-Aldrich, cat. A9165), 10 mM nicotinamide (Sigma-Aldrich, cat. N0636), 1X B-27 supplement (Thermo Fisher Scientific, cat. 17504044), 1X N-2 supplement (Thermo Fisher Scientific, cat. 17502048), 50 ng/mL human EGF (Thermo Fisher Scientific, cat. PHG0311), and 10 microM Y-27632 dihydrochloride (Tocris Bioscience, cat. 1254). The K12877-001-R-J1-PDC line was cultured in 6I media, which includes all 6C/Colon 1B media plus 10 ng/mL human FGF-10 (PeproTech, cat. 100-26), 1 ng/mL human FGF-2 (PeproTech, cat. 100-18B), 1 µM prostaglandin E2 (Tocris Bioscience, cat. 2296), […] hydrocortisone (Sigma-Aldrich, cat. H4001), and […] bovine insulin (Sigma-Aldrich, cat. I6634). The K86415-001-R-J1-PDC line was cultured in 6D media, which includes all 6C/Colon 1B media components minus the L-WRN conditioned media. The 485176-168-R4-J1-PDC was cultured in PANC media, which includes all 6C/Colon 1B media plus 100 ng/mL human FGF-10 (PeproTech, cat. 100-26), 500 nM SB-431542 (Selleckchem, cat. S1067), and 10 nM gastrin (Tocris Bioscience, cat. 3006). […]

`CC(=O)OC12COC1CC(O)C1(C)C(=O)C(O)C3=C(C)C(OC(=O)C(O)C(NC(=O)OC(C)(C)C)c4ccccc4)CC(O)(C(OC(=O)c4ccccc4)C21)C3(C)C` (centres undefined) + C#Cc1c(F)ccc2cc(O)cc(-c3ncc4c(N5CC6CCC(C5)N6)nc(OCC56CCCN5CC(F)C6)nc4c3F)c12 showed an IC50 (second compound 0.0316 µM) of less than 0.0316 µM, an IC50 (second compound 0.1 µM) of less than 0.0316 µM and an IC50 (second compound 0.316 µM) of less than 0.0316 µM. For the same compound, the IC50 (second compound 1 µM) was less than 0.0316 µM, the IC50 (second compound 3.16 µM) was less than 0.0316 µM and the IC50 (second compound 10 µM) was less than 0.0316 µM. It also gave a viability, T/C (second compound 0.0316 µM, first compound 0.0316 µM) of 0.76%, a viability, T/C (second compound 0.0316 µM, first compound 0.1 µM) of 1.3% and a viability, T/C (second compound 0.0316 µM, first compound 0.316 µM) of 1.24%. The viability, T/C (second compound 0.0316 µM, first compound 1 µM) was 1.01%, the viability, T/C (second compound 0.0316 µM, first compound 3.16 µM) was 1.67% and the viability, T/C (second compound 0.0316 µM, first compound 10 µM) was 0.89%. It also gave a viability, T/C (second compound 0.1 µM, first compound 0.0316 µM) of 1.76%, a viability, T/C (second compound 0.1 µM, first compound 0.1 µM) of 0.93% and a viability, T/C (second compound 0.1 µM, first compound 0.316 µM) of 1.5%. It also gave a viability, T/C (second compound 0.1 µM, first compound 1 µM) of 1.51%, a viability, T/C (second compound 0.1 µM, first compound 3.16 µM) of 1.27% and a viability, T/C (second compound 0.1 µM, first compound 10 µM) of 0.89%. For the same compound, the viability, T/C (second compound 0.316 µM, first compound 0.0316 µM) was 1.1%, the viability, T/C (second compound 0.316 µM, first compound 0.1 µM) was 0.78% and the viability, T/C (second compound 0.316 µM, first compound 0.316 µM) was 1.16%. For the same compound, the viability, T/C (second compound 0.316 µM, first compound 1 µM) was 1.88%, the viability, T/C (second compound 0.316 µM, first compound 3.16 µM) was 1.5% and the viability, T/C (second compound 0.316 µM, first compound 10 µM) was 0.79%. It also gave a viability, T/C (second compound 1 µM, first compound 0.0316 µM) of 1.5%, a viability, T/C (second compound 1 µM, first compound 0.1 µM) of 0.8% and a viability, T/C (second compound 1 µM, first compound 0.316 µM) of 1.05%. For the same compound, the viability, T/C (second compound 1 µM, first compound 1 µM) was 2.04%, the viability, T/C (second compound 1 µM, first compound 3.16 µM) was 1.33% and the viability, T/C (second compound 1 µM, first compound 10 µM) was 0.88%. It also gave a viability, T/C (second compound 3.16 µM, first compound 0.0316 µM) of 1.91%, a viability, T/C (second compound 3.16 µM, first compound 0.1 µM) of 0.99% and a viability, T/C (second compound 3.16 µM, first compound 0.316 µM) of 1.37%. It also gave a viability, T/C (second compound 3.16 µM, first compound 1 µM) of 0.71%, a viability, T/C (second compound 3.16 µM, first compound 3.16 µM) of 1.08% and a viability, T/C (second compound 3.16 µM, first compound 10 µM) of 0.76%. It also gave a viability, T/C (second compound 10 µM, first compound 0.0316 µM) of 1.78%, a viability, T/C (second compound 10 µM, first compound 0.1 µM) of 0.88% and a viability, T/C (second compound 10 µM, first compound 0.316 µM) of 1.86%. It also gave a viability, T/C (second compound 10 µM, first compound 1 µM) of 1.55%, a viability, T/C (second compound 10 µM, first compound 3.16 µM) of 1.23% and a viability, T/C (second compound 10 µM, first compound 10 µM) of 0.77%.
`C=CC(=O)Nc1cc(Nc2nccc(-c3cn(C)c4ccccc34)n2)c(OC)cc1N(C)CCN(C)C` + CCn1c(-c2cccnc2C(C)OC)c2c3cc(ccc31)N1CCOC(CC(NC(=O)C(C(C)C)N(C)C(=O)C3(F)CCN(C(=O)C#CC(C)(C)N(C)C)CC3)C(=O)N3CCCC(N3)C(=O)OCC(C)(C)C2)C1 showed an IC50 (second compound 0.000949 µM) greater than 1 µM, an IC50 (second compound 0.003 µM) greater than 1 µM and an IC50 (second compound 0.00949 µM) greater than 1 µM. It also gave an IC50 (second compound 0.03 µM) greater than 1 µM, an IC50 (second compound 0.0949 µM) greater than 1 µM and an IC50 (second compound 0.3 µM) greater than 1 µM. It also gave a viability, T/C (second compound 0.000949 µM, first compound 0.00316 µM) of 105%, a viability, T/C (second compound 0.000949 µM, first compound 0.01 µM) of 98.3% and a viability, T/C (second compound 0.000949 µM, first compound 0.0316 µM) of 110%. For the same compound, the viability, T/C (second compound 0.000949 µM, first compound 0.1 µM) was 100%, the viability, T/C (second compound 0.000949 µM, first compound 0.316 µM) was 106% and the viability, T/C (second compound 0.000949 µM, first compound 1 µM) was 100%. It also gave a viability, T/C (second compound 0.003 µM, first compound 0.00316 µM) of 101%, a viability, T/C (second compound 0.003 µM, first compound 0.01 µM) of 103% and a viability, T/C (second compound 0.003 µM, first compound 0.0316 µM) of 103%. It also gave a viability, T/C (second compound 0.003 µM, first compound 0.1 µM) of 102%, a viability, T/C (second compound 0.003 µM, first compound 0.316 µM) of 106% and a viability, T/C (second compound 0.003 µM, first compound 1 µM) of 103%. The viability, T/C (second compound 0.00949 µM, first compound 0.00316 µM) was 99.2%, the viability, T/C (second compound 0.00949 µM, first compound 0.01 µM) was 101% and the viability, T/C (second compound 0.00949 µM, first compound 0.0316 µM) was 107%. For the same compound, the viability, T/C (second compound 0.00949 µM, first compound 0.1 µM) was 103%, the viability, T/C (second compound 0.00949 µM, first compound 0.316 µM) was 107% and the viability, T/C (second compound 0.00949 µM, first compound 1 µM) was 103%. The viability, T/C (second compound 0.03 µM, first compound 0.00316 µM) was 90.5%, the viability, T/C (second compound 0.03 µM, first compound 0.01 µM) was 100% and the viability, T/C (second compound 0.03 µM, first compound 0.0316 µM) was 108%. For the same compound, the viability, T/C (second compound 0.03 µM, first compound 0.1 µM) was 107%, the viability, T/C (second compound 0.03 µM, first compound 0.316 µM) was 110% and the viability, T/C (second compound 0.03 µM, first compound 1 µM) was 102%. For the same compound, the viability, T/C (second compound 0.0949 µM, first compound 0.00316 µM) was 95.6%, the viability, T/C (second compound 0.0949 µM, first compound 0.01 µM) was 102% and the viability, T/C (second compound 0.0949 µM, first compound 0.0316 µM) was 104%. It also gave a viability, T/C (second compound 0.0949 µM, first compound 0.1 µM) of 106%, a viability, T/C (second compound 0.0949 µM, first compound 0.316 µM) of 107% and a viability, T/C (second compound 0.0949 µM, first compound 1 µM) of 98.3%. The viability, T/C (second compound 0.3 µM, first compound 0.00316 µM) was 99.8%, the viability, T/C (second compound 0.3 µM, first compound 0.01 µM) was 102% and the viability, T/C (second compound 0.3 µM, first compound 0.0316 µM) was 103%. The viability, T/C (second compound 0.3 µM, first compound 0.1 µM) was 107%, the viability, T/C (second compound 0.3 µM, first compound 0.316 µM) was 105% and the viability, T/C (second compound 0.3 µM, first compound 1 µM) was 101%.
